Assay results: publication PMC10003159, “Transcytosable Peptide-Paclitaxel Prodrug Nanoparticle for Targeted Treatment of Triple-Negative Breast Cancer” (International Journal of Molecular Sciences, 2023)
Where a SMILES comes first, the peptide text is derived from it. Where no end group is shown, it is not given here. The star is where a group is joined. X1 = CC(=O)O[C@H]1C(=O)[C@@]2(C)[C@H]([C@H](OC(=O)c3ccccc3)[C@]3(O)C[C@H](OC(=O)[C@H](OC(=O)CCC(=O)NCCN4C(=O)CC(*)C4=O)[C@@H](NC(=O)c4ccccc4)c4ccccc4)C(C)=C1C3(C)C)[C@]1(OC(C)=O)CO[C@@H]1C[C@@H]2O

Key:
[1] = tested on: 4T1-mCherry-Luc 3D tumor spheroids; assay: Penetration in 3D tumor spheroids; assay type: cell-based; conditions: 4 h incubation, LSCM, scanned at 10 μm interval
Description: After adding 150–200 μL of 2% agarose solution to each well, the 48-well plate was placed on the ultra-clean bench under UV irradiation for 30 min before solidification. The 4T1-mCherry-Luc cells were planted into the plate at the density of 4 × 10^4 cells per well and cultured in the incubator for one week. After the cells aggregated into spherical shapes, tumor spheroids were transferred to confocal dishes and incubated with PTX-SM-TAR/C6 NPs and coumarin-6 solution for 2 and 4 h. The tumor spheroids were washed with PBS, fixed with 4% paraformaldehyde for 30 min, and observed with LSCM.

4T1-mCherry-Luc tumor = assay: In vivo antitumor efficacy, subcutaneous TNBC model; parameters: species or system mice; conditions: tail vein every two days, 16 d, n = 7
Description: Healthy female BALB/c mice (18–20 g) were purchased from Shandong University Laboratory Animal Center. Mice were housed in a pathogen-free environment under conditions of 25 ± 2 °C, 50 ± 5% relative humidity, and 12-h light/dark cycles. They were provided with food and water ad libitum. All animal experiment protocols were approved by the Ethics Committee of School of Pharmaceutical Sciences, Shandong University (22017) and implemented according to the regulations of the Shandong Council on Animal Care. To establish the mice TNBC model, 1.0 × 10^6 4T1-mCherry-Luc cells were subcutaneously injected into the left forelimb armpit of mice. […] solution was injected into mice through the abdominal and reacted with 4T1-mCherry-Luc cells to produce bioluminescence. Then, the fluorescence signals were observed and counted by an IVIS Spectrum imaging system (IVIS Kinetic).
Four days after tumor cell implantation, mice were randomly divided into four groups (n = 7). Seven mice in each group, a total of twenty-eight mice were used. Then, saline, TAR peptide (10.6 mg/kg), PTX (4 mg/kg), and PTX-SM-TAR NPs (15.6 mg/kg) were injected through the tail vein every two days. Tumor size and body weight were measured every 4 d. After 16 d of treatment, mice were sacrificed and tumors were removed, weighed, and further analyzed.

EA.hy926 cells = assay: Cytotoxicity against normal cells; assay type: cell-based; conditions: Figure S5, n = 3
4T1-mCherry-Luc cells = assay: Wound healing migration assay; assay type: cell-based; conditions: 24 h, mean ± SEM, n = 3
Description: The effect of PTX-SM-TAR NPs and PTX on 4T1-mCherry-Luc cell migration was evaluated with wound-healing assay. 4T1-mCherry-Luc cells were seeded in 6-well plates at a density of 3 × 10^5 cells per well. After overnight culture, the cells were wounded linearly by a 200 µL pipette tip. […] Images of 0 and 24 h were captured by an inverted microscope.

Neuropilin 1 (NRP-1) = Neuropilin 1 (NRP-1) (UniProt O14786 22-923, The paper says only 'purified NRP-1 protein', immobilized on a CM5 chip. Species, construct and supplier are not printed. Human ectodomain (signal peptide removed, extracellular 22-856) is taken by co); assay: SPR; Biacore T200; purified NRP-1 immobilised on a CM5 chip; gradient-diluted TAR peptide flowed over; HBS-EP running buffer; conditions: both partners purified
Sequence of Neuropilin 1 (NRP-1) (O14786 22-923): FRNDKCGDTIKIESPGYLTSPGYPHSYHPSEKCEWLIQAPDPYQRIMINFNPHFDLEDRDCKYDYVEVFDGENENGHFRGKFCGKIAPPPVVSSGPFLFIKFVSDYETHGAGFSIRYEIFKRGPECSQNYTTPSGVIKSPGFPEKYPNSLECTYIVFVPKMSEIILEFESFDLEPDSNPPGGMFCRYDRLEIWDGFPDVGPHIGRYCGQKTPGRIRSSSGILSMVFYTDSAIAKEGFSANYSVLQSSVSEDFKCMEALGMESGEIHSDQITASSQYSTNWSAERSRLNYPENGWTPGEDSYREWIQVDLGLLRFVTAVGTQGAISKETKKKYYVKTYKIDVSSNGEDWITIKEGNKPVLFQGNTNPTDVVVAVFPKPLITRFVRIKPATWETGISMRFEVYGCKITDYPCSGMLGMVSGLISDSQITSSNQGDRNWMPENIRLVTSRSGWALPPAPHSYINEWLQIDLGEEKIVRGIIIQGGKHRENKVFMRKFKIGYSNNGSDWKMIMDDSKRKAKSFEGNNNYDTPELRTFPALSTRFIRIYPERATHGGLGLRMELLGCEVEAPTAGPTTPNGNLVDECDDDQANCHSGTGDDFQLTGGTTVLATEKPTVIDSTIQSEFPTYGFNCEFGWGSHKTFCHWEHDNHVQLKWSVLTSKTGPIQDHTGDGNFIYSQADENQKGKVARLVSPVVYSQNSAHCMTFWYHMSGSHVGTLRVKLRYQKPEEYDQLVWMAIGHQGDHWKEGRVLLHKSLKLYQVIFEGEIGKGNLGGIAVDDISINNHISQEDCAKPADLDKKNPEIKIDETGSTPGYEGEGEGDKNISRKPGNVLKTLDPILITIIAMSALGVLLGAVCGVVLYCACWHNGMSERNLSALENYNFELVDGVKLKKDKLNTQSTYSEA

| Molecule | body weight of mice during the experiment (4T1-mCherry-Luc tumor) | toxicity to normal cells (EA.hy926 cells) | other results |
| --- | --- | --- | --- |
| CCN(CC)c1ccc2cc(-c3nc4ccccc4s3)c(=O)oc2c1 [coumarin-6] | – | – | fluorescence distribution in tumor spheroids along Z-axis [1]: gradually disappeared after the Z-axis exceeded 60 μm |
| CRKKRRQRRRATWLPPR [TAR] | remained stable | – | – |
| CC(=O)O[C@H]1C(=O)[C@@]2(C)[C@H]([C@H](OC(=O)c3ccccc3)[C@]3(O)C[C@H](OC(=O)[C@H](OC(=O)CCC(=O)NCCN4C(=O)CC(SC[C@H](N)C(=O)N[C@@H](CCCNC(=N)N)C(=O)N[C@@H](CCCCN)C(=O)N[C@@H](CCCCN)C(=O)N[C@@H](CCCNC(=N)N)C(=O)N[C@@H](CCCNC(=N)N)C(=O)N[C@@H](CCC(N)=O)C(=O)N[C@@H](CCCNC(=N)N)C(=O)N[C@@H](CCCNC(=N)N)C(=O)N[C@@H](CCCNC(=N)N)C(=O)N[C@@H](C)C(=O)N[C@H](C(=O)N[C@@H](Cc5c[nH]c6ccccc56)C(=O)N[C@@H](CC(C)C)C(=O)N5CCC[C@H]5C(=O)N5CCC[C@H]5C(=O)N[C@@H](CCCNC(=N)N)C(=O)O)[C@@H](C)O)C4=O)[C@@H](NC(=O)c4ccccc4)c4ccccc4)C(C)=C1C3(C)C)[C@]1(OC(C)=O)CO[C@@H]1C[C@@H]2O (stereo partly shown) [PTX-SM-TAR NPs] (H-C(X1)RKKRRQRRRATWLPPR-OH) | remained stable | same trend as the PTX | – |
| CC(=O)O[C@H]1C(=O)[C@@]2(C)[C@H]([C@H](OC(=O)c3ccccc3)[C@]3(O)C[C@H](OC(=O)[C@H](O)[C@@H](NC(=O)c4ccccc4)c4ccccc4)C(C)=C1C3(C)C)[C@]1(OC(C)=O)CO[C@@H]1C[C@@H]2O [PTX, paclitaxel] | remained stable | slight toxicity to normal cells in the low-concentration | tumor inhibition rate (4T1-mCherry-Luc tumor; TAR 10.6 mg/kg, PTX 4 mg/kg, PTX-SM-TAR NPs 15.6 mg/kg, tumor weight): 28.47%; migration rate (4T1-mCherry-Luc cells; 10 nM): 32.53 ± 1.43%; migration rate (4T1-mCherry-Luc cells; 100 nM): 18.96 ± 2.76% |
| CRKKRRQRRRATWLPPR (also called fused peptide TAR; bifunctional fusion peptide of TAT and A7R; source: synthetic peptide (China Peptide Co., Ltd.)) [TAR peptide] | – | – | Kd (Neuropilin 1 (NRP-1)): 34 nM |
